The source of these data is PMC7765409 (International Journal of Molecular Sciences, 2020).

One assay concerns CDK1. Details: method as in AstraZeneca data repository. The conditions noted are these: median log of IC50/EC50/Ki/Kd annotations, highest value; ref AstraZeneca data repository; cited from earlier work.
Another assay concerns hiPSC-Hep. Description: valid cell count (Hoechst nuclei) in hiPSC-Hep, multiplexed viability readout. The assay is classed as cell-based. The conditions noted are these: Homo sapiens; for IC50: 10-point dose-response, multiplexed with lipid readout. How it is done:
To induce hepatic triglycerides (TAG) accumulation, before staining, cells were treated with 20 μL of 2× FA mixture, consisting of different proportions of oleic acid (OA-BSA, 25 µM, Sigma, #O3008), palmitic acid (PA-BSA, 200 µM, Agilent Technologies, #102720100) and thapsigargin (TG, 1 µM, Abcam, #120286) with a total volume of 40 μL/well. The TG/FA mixture was dispensed with BioTek^TM Microflo^TM select dispenser (#7170011, BioTek Instruments) and incubated for 18 h. Next, to label TAG accumulation stored into cytoplasmic lipid droplets, upon treatment, living cells were washed two times with warm Dulbecco’s Phosphate-Buffered Saline 1X (PBS, Corning, #21-031CV) with a handheld 384-channel electronic pipette device and then incubated for 15 min with a lipophilic dye, BODIPY 493/503 (8 ug/mL Life technologies, #D3922-green), in PBS at 37 °C. BODIPY (493/503) has become the standard dye utilized by scientists to study lipid droplets in live cells. After three washes with PBS cells were fixed with 4% paraformaldehyde methanol-free (PFA, Electron Microscopy Science, #15710) in PBS for 15 min at room temperature (RT). Cell health was monitored by Hoechst 33342 (10 ug/mL, Molecular Probe, #H21492) staining in PBS for nuclear count. After TAG staining the 384-assay plates were loaded in an automated confocal microscope with Opera High Content Imaging System (PerkinElmer, Waltham, MA, USA). Dyes were excited and images were captured on the Hoechst 3342 and Alexa Fluor 488 channels and signals were collected with a long pass filter 410 and 505 nm, for nuclei and TAG, respectively, at objective 20× air objective for HCA. To capture enough cells (>600) for the analysis, eight fields per well were imaged. Hoechst 33342 fluorescence was used to identify the nuclear region and cell counts. To assess intracellular fat deposits, BODIPY 493/503 fluorescence intensity was measured inside the cytoplasm region. […]

The test system of assay [1] is lipid droplet accumulation in TG/FA-treated hiPSC-Hep. Description: hiPSC-Hep ER-stress (TG/FA) induced lipid droplet accumulation high-content assay, integrated spot signal (BODIPY 493/503). The assay is classed as cell-based, human. The conditions noted are these: Homo sapiens; for IC50: 10-point dose-response, pre-treatment then TG/FA 18 h, read-out: IC50, inhibition of lipid accumulation (integrated spot signal); for EC50: Figure S5 dose-response, read-out: EC50, inhibition of lipid droplet accumulation (black line: ISS). How it is done: Cryopreserved hiPSC-derived hepatocytes (iCell Hepatocytes 2.0; Cellular Dynamics International Madison, WI) plated at a density of 36 K/well in 384-well on collagen I coated Corning Biocoat 384-well plates (BD Biosciences, 101306), were cultured to promote hepatic differentiation and maturation into hepatic-like cells as previously described. Hepatocytes were plated according to the manufacturer’s protocol in a volume of 50 µL/well using BioTek^TM Microflo^TM select dispenser (#7170011, BioTek Instruments) for high-throughput and high-content analysis assay (HT/HCA) drug discovery. After plating cells were cultured according to vendor specifications in a cell culture incubator at 37 °C, 5% CO2 for 3–4 h. Then, 40 µL spent medium was aspirated using multi-channel automated pipette handling system (Integra ViaFlo 96/384) and replaced with 40 µL (80% exchange) of fresh plating medium. Approximately 24 h post-plating 80% of medium was replaced every day thereafter. At day 5 of differentiation, 40 µL/well spent medium was replaced with maintenance medium (MM) consisting of William’s E medium (Thermo Fisher Scientific) supplemented with 0.1 µM dexamethasone and hepatocyte maintenance supplement pack (Thermo Fisher Scientific) for an additional 2–3 days before HCA. The overview of automated HT system for hiPSC-derived hepatocytes differentiation, staining and image analysis for phenotypic screening is depicted in Figure S2. Primary screening hit confirmation and dose response studies were performed on different batches of hiPSC-derived hepatocytes.
To induce hepatic triglycerides (TAG) accumulation, before staining, cells were treated with 20 μL of 2× FA mixture, consisting of different proportions of oleic acid (OA-BSA, 25 µM, Sigma, #O3008), palmitic acid (PA-BSA, 200 µM, Agilent Technologies, #102720100) and thapsigargin (TG, 1 µM, Abcam, #120286) with a total volume of 40 μL/well. The TG/FA mixture was dispensed with BioTek^TM Microflo^TM select dispenser (#7170011, BioTek Instruments) and incubated for 18 h. Next, to label TAG accumulation stored into cytoplasmic lipid droplets, upon treatment, living cells were washed two times with warm Dulbecco’s Phosphate-Buffered Saline 1X (PBS, Corning, #21-031CV) with a handheld 384-channel electronic pipette device and then incubated for 15 min with a lipophilic dye, BODIPY 493/503 (8 ug/mL Life technologies, #D3922-green), in PBS at 37 °C. BODIPY (493/503) has become the standard dye utilized by scientists to study lipid droplets in live cells. After three washes with PBS cells were fixed with 4% paraformaldehyde methanol-free (PFA, Electron Microscopy Science, #15710) in PBS for 15 min at room temperature (RT). Cell health was monitored by Hoechst 33342 (10 ug/mL, Molecular Probe, #H21492) staining in PBS for nuclear count. After TAG staining the 384-assay plates were loaded in an automated confocal microscope with Opera High Content Imaging System (PerkinElmer, Waltham, MA, USA). Dyes were excited and images were captured on the Hoechst 3342 and Alexa Fluor 488 channels and signals were collected with a long pass filter 410 and 505 nm, for nuclei and TAG, respectively, at objective 20× air objective for HCA. To capture enough cells (>600) for the analysis, eight fields per well were imaged. Hoechst 33342 fluorescence was used to identify the nuclear region and cell counts. To assess intracellular fat deposits, BODIPY 493/503 fluorescence intensity was measured inside the cytoplasm region.
For the HCA screen, compounds tested for their inhibitory effects, were used as single dose at a 10 μM final concentration of compound in DMSO in each well (0.1% DMSO) in 20 μL of maintenance medium. Prior to compound addition, 30 µL/well of medium was removed from hiPSC-Hep cells screening plates with ViaFlo ([…]). Pre-spotted 80 nL of 10 mM compound were diluted to 20 μM (0.2% DMSO) in 40 μL of maintenance medium in the source 384-well plate. […]

Another assay deals with CDK2. Details: method as in AstraZeneca data repository. The conditions noted are these: median log of IC50/EC50/Ki/Kd annotations, highest value; ref AstraZeneca data repository; cited from earlier work.
A further assay deals with CDK4. Details: method as in AstraZeneca data repository. Particulars: median log of IC50/EC50/Ki/Kd annotations, highest value; ref AstraZeneca data repository; cited from earlier work.

With `CNC(=O)c1nn(C)c2c1C(C)(C)Cc1cnc(Nc3ccc(N4CCN(C)CC4)cc3)nc1-2` [C16, Milciclib], in the assay with CDK1, the “pXC50 CDK1” value was 6.84. In addition, the results for the half-maximal inhibitory concentration (IC50) (in the assay on hiPSC-Hep; in assay [1]) were 16.6 µM and 4600 nM, respectively. For the same compound, the EC50 was found to be 16.6 µM in the assay with hiPSC-Hep (Figure S5 dose-response, read-out: EC50, viable cell count (red line)) and 4600 nM in assay [1]. Further, in the assay on CDK2, the “pXC50 CDK2” value was 7.60. For the same compound, in the assay on CDK4, the “pXC50 CDK4” value is given as 7.16.
Consider `Cc1ncc(-c2nc(Nc3ccc(N4CCN(C(=O)CO)CC4)cc3)ncc2F)n1C(C)C` [C3], for which, in the assay on CDK1, the “pXC50 CDK1” value is 7.61. For the same compound, the IC50 with hiPSC-Hep was > 30 µM. Also, in assay [1], the concentration for half-maximal inhibition (IC50) is 320 nM and the EC50 is 320 nM. Moreover, the “pXC50 CDK2” value in the assay with CDK2 is listed as 8.24. The “pXC50 CDK4” value in the assay on CDK4 is 7.33.

For orientation: IC50 means the concentration that inhibits the measured activity by half. Usually EC50 stands for the concentration giving half of the maximal effect.
